Measured values: US20090291877A1, “TREATMENTS USING CITRULLINE” (priority 2006, published 2009)

Columns and labels:
[1] = Plasma nitrotyrosine during 72-h intravenous infusion in ICU patients with severe sepsis/septic shock; format: in vivo, human; settings: 72-h i.v. infusion, compared with placebo
Experimental: (§1) Methods: According to a placebo-controlled double-blind study design, ICU patients with severe sepsis/septic shock (<48 h; APACHE II scores between 18-41) were randomized in a group treated with intravenous 72-h L-arginine-HCl (1.2 μmol/kg·min, n=9) or isocaloric L-alanine (placebo; n=9). All patients were treated with norepinephrine in a range between […] at the start of study. Haemodynamics were recorded at 2-h intervals throughout the protocol. Blood was sampled at baseline and at 24-h intervals and analysed for plasma nitrotyrosine levels. Repeated measurements ANOVA was used; data are means±SEM.

[2] = Haemodynamics (MAP, systemic blood pressure, norepinephrine dose) during 72-h intravenous infusion in ICU patients with severe sepsis/septic shock; format: in vivo, human; settings: for MAP: i.v. L-arginine-HCl 1.2 μmol/kg·min, mean ± SEM
Experimental: as §1

[3] = hemodialysis patients, pre versus post dialysis run; cited from earlier work

Cl.N=C(N)NCCC[C@H](N)C(=O)O [ARG, L-arginine-HCl]
Plasma nitrotyrosine (oxidative effect on plasma proteins), arginine versus placebo ([1]; listed as Arginine): does not enhance | Plasma nitrotyrosine (oxidative effect on plasma proteins), arginine versus placebo ([1]; listed as arginine): did not differ | Norepinephrine dose, arginine versus placebo ([2]; 72-h i.v. infusion, compared with placebo): No significant differences | Systemic blood pressure, arginine versus placebo ([2]; 72-h i.v. infusion, compared with placebo, listed as Arginine): does not affect | Systemic blood pressure, arginine versus placebo ([2]; 72-h i.v. infusion, compared with placebo, listed as arginine): No significant differences | MAP ([2]; 24 h): 81 ± 3 mmHg | MAP ([2]; 48 h): 85 ± 4 mmHg | MAP ([2]; 72 h): 84 ± 5 mmHg | MAP ([2]; Baseline): 82 ± 4 mmHg | Decrease of level during dialysis treatment [3]: 36%
